Assay [1] can be described thus: P. falciparum late gametocyte killing, dose response, luminescence (AID 1117278).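 Further: gametocytes exposed to compound for 24 hours.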 The class given is functional, cell-based.
A further assay deals with Cytochrome P450 2C19 (Homo sapiens, UniProt P33261). Kind of assay: Cytochrome panel assay with activity outcomes. Panel member name: p450-cyp2c19 Compounds with AC50 equal or less than 10 uM are considered active. It is filed as functional.
A short description of assay [2]: Jurkat T cell cytotoxicity, dose response, cytotoxicity control for P. falciparum gametocyte viability project, luminescence (AID 1117277).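 Further: potency reflects loss of cellular ATP meaning fewer viable cells.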 It is filed as functional, cell-based.
Another assay concerns the target T1, Cytochrome P450 1A2 (Homo sapiens, UniProt P05177).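 Further: PubChem cytochrome P450 panel assay, CYP1A2 panel member.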
T1 sequence (P05177 whole entry): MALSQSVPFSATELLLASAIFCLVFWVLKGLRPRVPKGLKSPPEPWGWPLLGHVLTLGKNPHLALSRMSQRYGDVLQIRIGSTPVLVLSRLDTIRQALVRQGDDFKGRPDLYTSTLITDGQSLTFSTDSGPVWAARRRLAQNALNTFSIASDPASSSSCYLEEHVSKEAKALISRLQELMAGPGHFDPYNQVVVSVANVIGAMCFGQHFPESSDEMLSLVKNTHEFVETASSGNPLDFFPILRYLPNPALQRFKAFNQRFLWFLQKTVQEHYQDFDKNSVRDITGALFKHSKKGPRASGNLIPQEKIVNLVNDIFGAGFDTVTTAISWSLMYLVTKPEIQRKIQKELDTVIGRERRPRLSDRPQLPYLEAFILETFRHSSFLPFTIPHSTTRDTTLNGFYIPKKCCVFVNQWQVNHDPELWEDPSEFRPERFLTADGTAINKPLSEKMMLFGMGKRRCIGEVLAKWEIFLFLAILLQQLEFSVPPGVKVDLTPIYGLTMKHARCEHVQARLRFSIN

Assay [3] in a line: HeLa 4N DNA content increase, dose response, cell-based, IC50 (AID 1117351). It is filed as functional.
The nature of assay [4]: HCT116 cell viability decrease, GSK3B pretreatment – CellTiter-Glo, IC50, dose response (AID 1117339). It is filed as functional. To be noted: HCT-116.
Assay [5] addresses Heat shock protein HSP 90-alpha (Homo sapiens, UniProt P07900). It is filed as functional, organism-based.
Assay [6] is described as follows: CellTiter-Glo luminescent dose response of DLD-1 viability loss (AID 1117352). It is filed as functional.
Assay [7] can be described thus: HeLa cell cytotoxicity, dose response, cytotoxicity control for MgcRacGAP inhibitor project (AID 624300). It is filed as functional.
A short description of assay [8]: half-maximal inhibitory concentration for glucagon-like peptide-1 release, STC-1 cell line, dose-response (AID 1117345). It is filed as functional, cell-based.
The nature of assay [9]: cytotoxicity toward HCT116 cells – cell-based, CellTiter-Glo luminescence, IC50, dose response (AID 1117332). The class given is functional. The note with it: HCT-116.
The nature of assay [10]: Glucagon-like peptide 1 release potency, NCI-H716 cell line, dose-response, half-maximal inhibitory concentration (AID 1117344). It is filed as functional, cell-based.
Assay [11] is described as follows: SNU-C1 cell viability reduction, dose response, CellTiter-Glo luminescence (AID 1117323). The class given is functional, cell-based.
In another assay the target is T2, Cysteine protease ATG4B (Homo sapiens, UniProt Q9Y4P1).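 Further: Fluorescence-based dose-response confirmation assay measuring inhibition of ATG4B activity.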
T2 sequence (Q9Y4P1 whole entry): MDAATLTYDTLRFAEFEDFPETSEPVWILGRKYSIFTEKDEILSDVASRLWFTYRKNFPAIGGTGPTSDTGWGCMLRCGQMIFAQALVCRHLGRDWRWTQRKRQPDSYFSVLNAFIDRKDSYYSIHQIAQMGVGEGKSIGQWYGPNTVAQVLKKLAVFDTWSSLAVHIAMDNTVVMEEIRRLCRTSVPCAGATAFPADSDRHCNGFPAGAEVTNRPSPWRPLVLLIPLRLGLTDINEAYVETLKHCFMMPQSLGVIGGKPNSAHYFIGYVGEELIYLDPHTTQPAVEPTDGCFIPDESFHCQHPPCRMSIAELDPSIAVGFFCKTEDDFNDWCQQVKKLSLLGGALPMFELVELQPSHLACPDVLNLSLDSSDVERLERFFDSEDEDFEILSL
The class given is functional.

Assay [12] is described as follows: Concentration-dependent survival of SW480 colon cancer line, luminescence detection with CellTiter-Glo, half-maximal inhibitory concentration (AID 1117338). The class given is functional.
Assay [13] in a line: cytotoxicity toward HT-29 cells – cell-based, CellTiter-Glo luminescence, IC50, dose response (AID 1117330). It is filed as functional.
Assay [14] addresses T3, DNA repair protein RAD52 homolog (Homo sapiens, UniProt P43351).
T3 sequence (P43351 whole entry): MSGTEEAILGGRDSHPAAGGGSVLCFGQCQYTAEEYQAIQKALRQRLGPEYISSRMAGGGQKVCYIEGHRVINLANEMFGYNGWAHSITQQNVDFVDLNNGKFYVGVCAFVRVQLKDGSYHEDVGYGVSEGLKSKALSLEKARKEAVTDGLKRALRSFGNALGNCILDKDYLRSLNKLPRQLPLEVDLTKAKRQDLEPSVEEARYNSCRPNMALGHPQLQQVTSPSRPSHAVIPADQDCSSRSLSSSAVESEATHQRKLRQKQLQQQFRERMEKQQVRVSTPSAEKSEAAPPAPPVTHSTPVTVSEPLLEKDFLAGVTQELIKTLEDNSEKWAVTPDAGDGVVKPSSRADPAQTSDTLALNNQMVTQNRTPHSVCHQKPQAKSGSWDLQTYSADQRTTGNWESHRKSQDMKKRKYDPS
The class given is functional, biochemical.

Assay [15] in a line: HeLa 2N DNA content increase, dose response, cell-based, IC50 (AID 1117349). The class given is functional.
Assay [16] in a line: cytotoxicity toward Colo320 cells – cell-based, CellTiter-Glo luminescence, IC50, dose response (AID 1117334). The class given is functional. To be noted: COLO 320.
For assay [17], the target named is T4, Rac GTPase-activating protein 1 (Homo sapiens, UniProt Q9H0H5).
T4 sequence (Q9H0H5 whole entry): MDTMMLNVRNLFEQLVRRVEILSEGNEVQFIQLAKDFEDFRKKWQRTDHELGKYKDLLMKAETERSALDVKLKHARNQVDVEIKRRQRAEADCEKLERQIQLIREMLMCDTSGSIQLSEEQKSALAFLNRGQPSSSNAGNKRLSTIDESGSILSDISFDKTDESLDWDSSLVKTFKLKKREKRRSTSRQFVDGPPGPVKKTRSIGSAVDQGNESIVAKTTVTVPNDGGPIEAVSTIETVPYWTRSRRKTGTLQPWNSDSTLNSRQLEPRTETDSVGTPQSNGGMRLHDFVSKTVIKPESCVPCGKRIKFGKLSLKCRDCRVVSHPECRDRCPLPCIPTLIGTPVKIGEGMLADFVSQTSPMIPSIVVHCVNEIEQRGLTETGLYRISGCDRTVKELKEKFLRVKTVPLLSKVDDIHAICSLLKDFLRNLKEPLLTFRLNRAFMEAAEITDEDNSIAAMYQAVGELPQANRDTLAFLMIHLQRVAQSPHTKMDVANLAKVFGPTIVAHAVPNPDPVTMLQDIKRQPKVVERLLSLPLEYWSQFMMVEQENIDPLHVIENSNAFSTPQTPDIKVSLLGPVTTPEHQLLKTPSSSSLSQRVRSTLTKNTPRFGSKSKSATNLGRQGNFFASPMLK
Kind of assay: MgcRacGAP GTPase-activating activity inhibitors, confirmation, biochemical, ADP Hunter fluorescence, primary and confirmatory (AID 624330). The class given is functional.

Another assay concerns the target Phospholipase A2 (Homo sapiens, UniProt P04054). The class given is functional.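 Further: confirmatory dose-response counterscreen on phospholipase A2, testing hits that came from an ultra-high-throughput screen for ATG4B inhibitors.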
Another assay in a line: cells. It is filed as functional, cell-based. To be noted: INS-1E.
A short description of assay [18]: RKO cell viability reduction, dose response, CellTiter-Glo luminescence (AID 1117322). It is filed as functional.

Activity calls are given as the source filed them.

Cytochrome P450 2C19, sequence (P33261 whole entry): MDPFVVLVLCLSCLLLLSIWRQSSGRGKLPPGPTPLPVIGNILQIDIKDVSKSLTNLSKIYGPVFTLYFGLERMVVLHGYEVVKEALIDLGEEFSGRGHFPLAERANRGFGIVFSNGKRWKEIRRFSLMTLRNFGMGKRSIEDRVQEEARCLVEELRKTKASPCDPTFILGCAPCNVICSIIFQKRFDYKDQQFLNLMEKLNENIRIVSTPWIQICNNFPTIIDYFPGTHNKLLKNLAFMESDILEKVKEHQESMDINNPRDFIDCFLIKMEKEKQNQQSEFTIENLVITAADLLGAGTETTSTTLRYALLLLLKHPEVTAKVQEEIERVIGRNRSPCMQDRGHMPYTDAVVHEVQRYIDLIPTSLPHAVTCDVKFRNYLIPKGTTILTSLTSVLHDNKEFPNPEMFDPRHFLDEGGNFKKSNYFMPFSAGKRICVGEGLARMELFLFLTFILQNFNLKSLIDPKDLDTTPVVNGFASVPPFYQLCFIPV
Phospholipase A2, sequence (P04054 whole entry): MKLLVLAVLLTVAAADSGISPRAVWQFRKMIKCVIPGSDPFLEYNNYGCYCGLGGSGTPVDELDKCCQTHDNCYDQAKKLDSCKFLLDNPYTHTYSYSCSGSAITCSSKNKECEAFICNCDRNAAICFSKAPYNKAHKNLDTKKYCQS

For the compound `CCCCC1(C)NC(=O)c2c(C)sc(C(=O)OCC)c2N1` (stereo not drawn), the values for the IC50 in assay [1] and in assay [2] were > 109 µM (inactive) and > 83.3 µM (inactive), respectively. Besides, the AC50 was 2.24 µM (inconclusive) at Cytochrome P450 2C19 and 14.1 µM (inconclusive) at Cytochrome P450 1A2.
Turning to `CCCCCCCCCCCCCCCC[n+]1ccccc1`, the IC50 was > 10 µM (inactive) in assay [3]; 2.29 µM (active) in [4]; 1.93 µM (active) in assay [6]; > 20 µM (inactive) in assay [8]; 1.19 µM (active) in [9]; 14.8 µM (inactive) in assay [10]. The IC50 in assay [11] was 0.934 µM (active); on Cysteine protease ATG4B, 7.14 µM (active); in assay [12] it was 1.61 µM (active); in [13], 2.29 µM (active); in assay [15], 1.25 µM (active); in [16] it was 1.64 µM (active). The concentration for half-maximal inhibition (IC50) in assay [17] was 61.1 µM (active); at Phospholipase A2, 8.34 µM (active); in “cells”, > 33.3 µM (inactive); in assay [18], 1.27 µM (active). Also, the AC50 was 4.22 µM (active) in assay [5] and 3.79 µM (active) in assay [14]. For the same compound, the CC50 in assay [7] was 11.8 µM (active).

The values are drawn from ChEMBL document CHEMBL1201862, “PubChem BioAssay data set” (2004).
